# Data: PMC12265377, “CC48 a new CB2R agonist/FAAH inhibitor dual drug blocks gastric cancer progression and overcomes paclitaxel resistance” (Journal of Experimental & Clinical Cancer Research : CR, 2025)
# Where “and” joins values, the source holds several entries; their conditions need not be identical. Equal entries are not always repeated.
# Legend:
# CB2R = CB2R affinity (literature values); assay type: binding; settings: CB2R vs CB1R
# NCI-N87_LUC cell line = test: Mouse model by intraperitoneal NCI-N87_LUC inoculation, tumor growth by IVIS; assay type: in vivo, CD1-nude female mice; settings: for BLI measurement, individual animals: listed as FI-5; for tumor volume vs control group (vehicle): day 41
# Description: EighteenCD1-nude female mice(Charles River Laboratories International, Inc.) were intraperitoneally injected with the NCI-N87 cell line, stable transfected with the luciferase gene (NCl-N87_LUC) at a concentration of 2 × 10^6/100µL cells. Experimental groups and treatments are described in the table below (Table 1). Two concentrations of the CC48 molecule, 10 and 20 mg/Kg, were tested in two experimental groups. A third group was treated with the vehicle, consisting of20% DMSO, 10% Cyclodextrin and distilled water. […] The staff involved in the study recorded all the observations on recording forms. The data concerning animals’ body weight, clinical signs, feed intake and TP intake were recorded on the experimental register. All the corrections on data collection forms were made according to the Test Facility SOPs. All derived values, of registered tumor volumes, which are reported in the Tables S2 and S3 and relative graphs, such as mean and standard deviation, represent the rounded-up results of calculation performed with Microsoft Excel. Dunnett’s multiple comparison statistical test was applied.
# [1] = test system: circulating cytokines (eotaxin, G-CSF, p40IL-12); test: Serum cytokine quantification (Bio-Plex); assay type: in vivo, CD1-nude female mice
# Description: Serum levels of 23 cytokines [G-CSF, GM-CSF, GRO/KC (CXCL1), IFN-γ, IL-1α, IL-1β, IL-2, IL-3, IL-4, IL-5, IL-6, IL-9, IL-10, IL-12 (p70), IL-13, IL-17 A, IL-18, MCP-1 (CCL2), MIP-1α, MIP-1β, RANTES, TNF-α, and eotaxin] were measured using Bio-Plex Pro Rat Cytokine 23-Plex™ (#M60009RDPD) magnetic bead-based assays (Bio-Rad Laboratories) on the Bio-Plex® platform (Bio-Rad), according to the manufacturer’s instructions. […] Cytokine expression (pg/mL) for each sample was multiplied by the dilution factor prior to the percent baseline calculation.
smiles,measurement,setting,value
O=C(NC12CC3CC(CC(C3)C1)C2)c1ccccc1OCc1ccccc1 [CC48],fold higher affinity for CB2R compared to CB1R,CB2R,16 fold
same,"BLI measurement, group MEAN","NCI-N87_LUC cell line; GP2 10mg/kg, DAY 5, n 5 (outlier ID 7 excluded)","1,45E+05"
same,"BLI measurement, individual animals","NCI-N87_LUC cell line; GP2 10mg/kg, DAY 5","1,32E+06 and 5,58E+05 and 1,13E+05 and 4,14E+04 and 9,93E+03 and 3,23E+03"
same,"BLI measurement, group MEAN","NCI-N87_LUC cell line; GP2 10mg/kg, DAY 7, n 5","1,29E+05"
same,"BLI measurement, individual animals","NCI-N87_LUC cell line; GP2 10mg/kg, DAY 7","1,55E+06 and 5,41E+05 and 7,10E+04 and 2,79E+04 and 3,30E+03 and 2,39E+03"
same,"BLI measurement, group MEAN","NCI-N87_LUC cell line; GP2 10mg/kg, DAY 10, n 5","1,07E+05"
same,"BLI measurement, individual animals","NCI-N87_LUC cell line; GP2 10mg/kg, DAY 10","1,30E+06 and 4,73E+05 and 4,20E+04 and 1,70E+04 and 2,56E+03 and 2,69E+03"
same,"BLI measurement, group MEAN","NCI-N87_LUC cell line; GP2 10mg/kg, DAY 14, n 5","1,83E+05"
same,"BLI measurement, individual animals","NCI-N87_LUC cell line; GP2 10mg/kg, DAY 14","7,07E+05 and 8,53E+05 and 3,80E+04 and 1,58E+04 and 2,68E+03 and 3,22E+03"
same,"BLI measurement, group MEAN","NCI-N87_LUC cell line; GP2 10mg/kg, DAY 17, n 5","2,73E+05"
same,"BLI measurement, individual animals","NCI-N87_LUC cell line; GP2 10mg/kg, DAY 17","8,99E+05 and 1,29E+06 and 6,23E+04 and 1,12E+04 and 1,95E+03 and 1,85E+03"
same,"BLI measurement, group MEAN","NCI-N87_LUC cell line; GP2 10mg/kg, DAY 24, n 5","3,18E+05"
same,"BLI measurement, individual animals","NCI-N87_LUC cell line; GP2 10mg/kg, DAY 24","1,09E+06 and 1,51E+06 and 6,35E+04 and 1,11E+04 and 2,24E+03 and 2,96E+03"
same,"BLI measurement, group MEAN","NCI-N87_LUC cell line; GP2 10mg/kg, DAY 31, n 5","3,12E+05"
same,"BLI measurement, individual animals","NCI-N87_LUC cell line; GP2 10mg/kg, DAY 31","1,51E+06 and 1,43E+06 and 1,11E+05 and 1,60E+04 and 3,40E+03 and 3,65E+03"
same,"BLI measurement, group MEAN","NCI-N87_LUC cell line; GP2 10mg/kg, DAY 35, n 5","2,44E+05"
same,"BLI measurement, individual animals","NCI-N87_LUC cell line; GP2 10mg/kg, DAY 35","2,93E+06 and 1,06E+06 and 1,41E+05 and 1,56E+04 and 3,01E+03 and 3,50E+03"
same,"BLI measurement, group MEAN","NCI-N87_LUC cell line; GP2 10mg/kg, DAY 38, n 5","4,60E+04"
same,"BLI measurement, individual animals","NCI-N87_LUC cell line; GP2 10mg/kg, DAY 38","4,74E+06 and 1,04E+05 and 1,11E+05 and 9,13E+03 and 2,90E+03 and 2,69E+03"
same,"BLI measurement, group MEAN","NCI-N87_LUC cell line; GP2 10mg/kg, DAY 41, n 5","2,12E+05"
same,"BLI measurement, individual animals","NCI-N87_LUC cell line; GP2 10mg/kg, DAY 41","3,93E+06 and 8,93E+05 and 1,54E+05 and 9,95E+03 and 3,19E+03 and 2,28E+03"
same,tumor volume vs control group (vehicle),"NCI-N87_LUC cell line; GP2, 10 mg/kg IP every other day, p < 0.01",substantial and significant decrease in tumor volume
same,"BLI measurement, group MEAN","NCI-N87_LUC cell line; GP3 20mg/kg, DAY 5, n 5 (outlier ID 13 excluded)","2,03E+05"
same,"BLI measurement, individual animals","NCI-N87_LUC cell line; GP3 20mg/kg, DAY 5","1,03E+06 and 8,12E+05 and 1,11E+05 and 7,63E+04"
same,"BLI measurement, group MEAN","NCI-N87_LUC cell line; GP3 20mg/kg, DAY 7, n 5","1,10E+05"
same,"BLI measurement, individual animals","NCI-N87_LUC cell line; GP3 20mg/kg, DAY 7","7,47E+05 and 4,61E+05 and 2,67E+04 and 5,08E+04"
same,"BLI measurement, group MEAN","NCI-N87_LUC cell line; GP3 20mg/kg, DAY 10, n 5","8,98E+04"
same,"BLI measurement, individual animals","NCI-N87_LUC cell line; GP3 20mg/kg, DAY 10","3,56E+05 and 3,68E+05 and 3,53E+04 and 3,80E+04"
same,"BLI measurement, group MEAN","NCI-N87_LUC cell line; GP3 20mg/kg, DAY 14, n 5","1,18E+05"
same,"BLI measurement, individual animals","NCI-N87_LUC cell line; GP3 20mg/kg, DAY 14","1,23E+06 and 5,29E+05 and 3,27E+04 and 1,72E+04"
same,"BLI measurement, group MEAN","NCI-N87_LUC cell line; GP3 20mg/kg, DAY 17, n 5","1,51E+05"
same,"BLI measurement, individual animals","NCI-N87_LUC cell line; GP3 20mg/kg, DAY 17","1,63E+06 and 7,10E+05 and 2,61E+04 and 1,16E+04"
same,"BLI measurement, group MEAN","NCI-N87_LUC cell line; GP3 20mg/kg, DAY 24, n 5","2,46E+05"
same,"BLI measurement, individual animals","NCI-N87_LUC cell line; GP3 20mg/kg, DAY 24","1,67E+06 and 1,15E+06 and 3,46E+04 and 3,03E+04"
same,"BLI measurement, group MEAN","NCI-N87_LUC cell line; GP3 20mg/kg, DAY 31, n 5","2,64E+05"
same,"BLI measurement, individual animals","NCI-N87_LUC cell line; GP3 20mg/kg, DAY 31","1,22E+06 and 1,26E+06 and 2,79E+04 and 1,85E+04"
same,"BLI measurement, group MEAN","NCI-N87_LUC cell line; GP3 20mg/kg, DAY 35, n 5","3,58E+05"
same,"BLI measurement, individual animals","NCI-N87_LUC cell line; GP3 20mg/kg, DAY 35","2,08E+06 and 1,71E+06 and 4,56E+04 and 2,63E+04"
same,"BLI measurement, group MEAN","NCI-N87_LUC cell line; GP3 20mg/kg, DAY 38, n 5","2,00E+05"
same,"BLI measurement, individual animals","NCI-N87_LUC cell line; GP3 20mg/kg, DAY 38","2,42E+06 and 9,14E+05 and 3,50E+04 and 4,29E+04"
same,"BLI measurement, group MEAN","NCI-N87_LUC cell line; GP3 20mg/kg, DAY 41, n 5","2,00E+04"
same,"BLI measurement, individual animals","NCI-N87_LUC cell line; GP3 20mg/kg, DAY 41","1,34E+06 and 3,58E+04 and 3,11E+04 and 2,06E+04"
same,tumor volume vs control group (vehicle),"NCI-N87_LUC cell line; GP3, 20 mg/kg IP every other day, p < 0.001",statistically significant difference in the size of the tumor mass
same,serum G-CSF level vs GP1,"[1]; GP2, 10 mg/kg, p < 0.01",significant decrease
same,serum eotaxin level vs GP1,"[1]; GP3, 20 mg/kg",tended to decrease
same,serum G-CSF level vs GP1,"[1]; GP3, 20 mg/kg, p < 0.05",maintained at the highest dose
same,serum p40IL-12 level vs GP1,"[1]; GP3, 20 mg/kg, p < 0.05",significant decrease
